Laboratory results from patent US20240383905A1, “FGFR INHIBITORS AND METHODS OF USE THEREOF” (3H PHARMACEUTICALS CO., LTD., priority 2021, published 2024).

How the values were obtained:
FGFR3 = target: T1, FGFR3 (Homo sapiens, UniProt P22607); experiment: FGFR3 Biochemical Caliper Assay (KinEASE-TK kit); settings: ratio FGFR3/FGFR2 of the biochemical assay
T1 construct: purchased Carna 08-135
Procedure, shortened: (§1)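 KinEASE-TK HTRF readout: enzyme at 0.2 nM (FGFR1, FGFR3) preincubated 10 min at RT with 10-point 3-fold compound dilutions before TK-substrate/ATP start.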

FGFR1 = target: T2, FGFR1 (Homo sapiens, UniProt P11362); experiment: FGFR1 Biochemical Caliper Assay (KinEASE-TK kit); settings: ratio FGFR1/FGFR2 of the biochemical assay
T2 construct: purchased Carna 08-133
T2 sequence (P11362 22-822): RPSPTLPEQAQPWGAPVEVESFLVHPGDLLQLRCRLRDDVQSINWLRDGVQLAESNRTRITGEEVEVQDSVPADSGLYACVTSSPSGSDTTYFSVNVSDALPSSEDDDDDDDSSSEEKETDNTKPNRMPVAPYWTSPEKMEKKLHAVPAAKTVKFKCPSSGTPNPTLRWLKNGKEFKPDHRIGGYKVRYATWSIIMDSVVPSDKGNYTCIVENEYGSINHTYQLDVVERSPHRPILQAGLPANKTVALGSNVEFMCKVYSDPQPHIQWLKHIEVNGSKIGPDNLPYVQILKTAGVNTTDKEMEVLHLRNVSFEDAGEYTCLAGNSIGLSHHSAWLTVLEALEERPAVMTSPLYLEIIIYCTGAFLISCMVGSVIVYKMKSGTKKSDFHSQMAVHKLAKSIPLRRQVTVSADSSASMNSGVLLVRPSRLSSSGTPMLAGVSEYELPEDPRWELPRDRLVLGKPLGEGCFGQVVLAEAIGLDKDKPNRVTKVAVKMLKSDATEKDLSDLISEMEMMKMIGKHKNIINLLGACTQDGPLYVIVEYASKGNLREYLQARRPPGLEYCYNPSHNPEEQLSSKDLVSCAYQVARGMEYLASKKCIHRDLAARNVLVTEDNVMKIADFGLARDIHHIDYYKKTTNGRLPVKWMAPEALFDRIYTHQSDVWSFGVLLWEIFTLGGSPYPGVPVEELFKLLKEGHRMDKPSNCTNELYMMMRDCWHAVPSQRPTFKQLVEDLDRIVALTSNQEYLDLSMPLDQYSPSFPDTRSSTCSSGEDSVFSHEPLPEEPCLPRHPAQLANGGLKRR
Procedure, shortened: as §1

SNU16 cells = experiment: SNU16 Cancer Cell Line Proliferation Assay (CellTiter-Glo); type: cell-based; settings: Homo sapiens, SNU-16, 72 h
Procedure, shortened: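 SNU16 cells at 5000/well exposed to 9-point 3-fold serial compound dilutions (DMSO control) for 72 h at 37 °C, 5% CO2. Viability read by luminescence; IC50 calculated from dose-response.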

FGFR2 = target: T3, FGFR2 (Homo sapiens, UniProt P21802); experiment: FGFR2 Biochemical Caliper Assay (KinEASE-TK kit); settings: 0.07 nM FGFR2; compound incubated with protein 10 min, reaction 45 min at RT; read-out: FGFR2 Cliper IC50
T3 construct: purchased Carna 08-134
T3 sequence (P21802 22-821): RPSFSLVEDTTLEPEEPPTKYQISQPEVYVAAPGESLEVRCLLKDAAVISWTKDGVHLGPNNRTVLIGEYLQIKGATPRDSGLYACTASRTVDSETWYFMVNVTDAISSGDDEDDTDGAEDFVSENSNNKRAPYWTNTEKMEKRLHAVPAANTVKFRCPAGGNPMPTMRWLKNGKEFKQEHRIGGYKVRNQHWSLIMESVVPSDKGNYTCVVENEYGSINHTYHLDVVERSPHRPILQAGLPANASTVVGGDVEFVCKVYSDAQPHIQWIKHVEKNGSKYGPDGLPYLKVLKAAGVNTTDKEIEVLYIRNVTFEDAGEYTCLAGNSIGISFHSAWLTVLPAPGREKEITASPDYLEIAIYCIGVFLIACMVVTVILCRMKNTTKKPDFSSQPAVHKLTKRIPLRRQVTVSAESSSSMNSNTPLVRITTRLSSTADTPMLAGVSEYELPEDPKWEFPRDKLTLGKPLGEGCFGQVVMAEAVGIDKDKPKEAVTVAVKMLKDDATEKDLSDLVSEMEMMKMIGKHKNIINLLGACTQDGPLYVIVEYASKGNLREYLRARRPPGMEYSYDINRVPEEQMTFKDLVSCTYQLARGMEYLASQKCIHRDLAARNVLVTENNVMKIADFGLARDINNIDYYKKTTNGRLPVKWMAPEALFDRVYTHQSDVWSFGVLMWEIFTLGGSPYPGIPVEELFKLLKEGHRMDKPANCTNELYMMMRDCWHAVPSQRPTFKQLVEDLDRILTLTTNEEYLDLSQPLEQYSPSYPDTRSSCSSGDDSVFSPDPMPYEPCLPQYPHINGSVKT

T1 sequence (P22607 23-806): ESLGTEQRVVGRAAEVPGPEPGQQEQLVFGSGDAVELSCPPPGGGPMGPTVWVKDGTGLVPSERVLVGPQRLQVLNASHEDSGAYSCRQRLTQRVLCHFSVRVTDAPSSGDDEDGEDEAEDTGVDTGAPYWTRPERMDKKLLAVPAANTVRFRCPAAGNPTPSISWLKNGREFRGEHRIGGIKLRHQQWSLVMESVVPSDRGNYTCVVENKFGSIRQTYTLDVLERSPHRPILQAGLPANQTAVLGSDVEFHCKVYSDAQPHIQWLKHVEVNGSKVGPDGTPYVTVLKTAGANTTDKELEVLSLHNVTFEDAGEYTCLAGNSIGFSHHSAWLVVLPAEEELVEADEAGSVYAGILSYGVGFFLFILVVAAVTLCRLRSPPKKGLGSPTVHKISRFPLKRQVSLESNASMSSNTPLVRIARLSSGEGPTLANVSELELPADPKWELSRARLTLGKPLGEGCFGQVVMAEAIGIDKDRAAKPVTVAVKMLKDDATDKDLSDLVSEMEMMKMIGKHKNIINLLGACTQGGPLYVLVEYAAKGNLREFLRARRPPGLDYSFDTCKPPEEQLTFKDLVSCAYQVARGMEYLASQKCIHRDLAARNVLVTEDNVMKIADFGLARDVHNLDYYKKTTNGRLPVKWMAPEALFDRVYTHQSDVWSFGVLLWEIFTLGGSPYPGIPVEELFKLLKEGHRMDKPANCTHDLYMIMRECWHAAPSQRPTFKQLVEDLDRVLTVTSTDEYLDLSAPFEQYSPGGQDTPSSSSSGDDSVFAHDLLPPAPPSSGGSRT

Structure (SMILES)	IC50 (SNU16 cells) [nM]	IC50 (FGFR2) [nM]	Selectivity FGFR3/FGFR2 (FGFR3)	Selectivity FGFR1/FGFR2 (FGFR1)
C=CC(=O)Nc1ccc(-c2c(-c3ccc(C(=O)NC4CC(F)C4)c(OC)c3)c3c(N)ncc(C#N)c3n2C)cc1 (stereo not shown) [Compound 168, 4-(2-(4-acrylamidophenyl)-4-amino-7-cyano-1-methyl-1H-pyrrolo[3,2-c]pyridin-3-yl)-N-(3-fluorocyclobutyl)-2-methoxybenzamide]	≤ 10	< 5	A+ (Selectivity of FGFR3/FGFR2 greater or equal to 150)	A+ (Selectivity of FGFR1/FGFR2 greater or equal to 500)
C=CC(=O)Nc1ccc(-c2nn3ncnc(N)c3c2-c2ccc(Oc3ccn(C)n3)c(F)c2)cc1 [Compound 402, N-(4-(4-amino-5-(3-fluoro-4-((1-methyl-1H-pyrazol-3-yl)oxy)phenyl)pyrazolo [5,1-f][1,2,4]triazin-6-yl)phenyl)acrylamide]	≤ 10	> 10	A+ (Selectivity of FGFR3/FGFR2 greater or equal to 150)	A+ (Selectivity of FGFR1/FGFR2 greater or equal to 500)
C=CC(=O)Nc1ccc(-n2nc3c(=O)[nH]nc(N)c3c2-c2ccc(Oc3cccc(C)n3)c(OC)c2)cc1 [Compound 115]	10 to 50	5 to 10	A+ (Selectivity of FGFR3/FGFR2 greater or equal to 150)	C (Selectivity of FGFR1/FGFR2 less than 200 but greater than or equal to 100)
C=C(F)C(=O)Nc1ccc(-c2nn3ncnc(N)c3c2-c2ccc(Oc3cccc(C)n3)c(F)c2)c(F)c1 [Compound 438, N-(4-(4-amino-5-(3-fluoro-4-((6-methylpyridin-2-yl)oxy)phenyl)pyrazolo [5,1-f][1,2,4]triazin-6-yl)-3-fluorophenyl)-2-fluoroacrylamide]	≤ 10	< 5	A+ (Selectivity of FGFR3/FGFR2 greater or equal to 150)	A+ (Selectivity of FGFR1/FGFR2 greater or equal to 500)
C=C(F)C(=O)Nc1ccc(-c2nn3ncnc(N)c3c2-c2ccc(C(=O)NCC3(F)CC3)c(OC)c2)cc1 [Compound 204, 4-(4-amino-6-(4-(2-fluoroacrylamido)phe-nyl)pyrazolo[5,1-f][1,2,4]triazin-5-yl)-N-((1-fluorocyclopropyl)methyl)-2-methoxybenzamide]	≤ 10	< 5	A (Selectivity of FGFR3/FGFR2 less than 150 but greater than or equal to 100)	A+ (Selectivity of FGFR1/FGFR2 greater or equal to 500)
C=CC(=O)Nc1ccc(-c2nn3ncnc(N)c3c2-c2ccc(OC3CCCCC3)cc2)cc1 [Compound 228, N-(4-(4-amino-5-(4-(cyclohexyloxy)phenyl)pyrazolo[5,1-f][1,2,4]triazin-6-yl)phenyl)acrylamide]	≤ 10	5 to 10	A+ (Selectivity of FGFR3/FGFR2 greater or equal to 150)	A+ (Selectivity of FGFR1/FGFR2 greater or equal to 500)
C=CC(=O)Nc1ccc(-c2c(-c3ccc(NC(=O)C4CC4)c(OC)c3)c3c(N)ncc(C#N)c3n2C)cc1 [Compound 237]	≤ 10	5 to 10	A+ (Selectivity of FGFR3/FGFR2 greater or equal to 150)	B (Selectivity of FGFR1/FGFR2 less than 300 but greater than or equal to 200)
C=C(F)C(=O)Nc1ccc(-c2nn3ncnc(N)c3c2-c2ccc(C(=O)NC3CCC3)c(OC)c2)cc1 [Compound 95, 4-(4-amino-6-(4-(2-fluoroacrylamido)phe-nyl)pyrazolo[5,1-f][1,2,4]triazin-5-yl)-N-cyclobutyl-2-methoxybenzamide]	≤ 10	> 10	A+ (Selectivity of FGFR3/FGFR2 greater or equal to 150)	A+ (Selectivity of FGFR1/FGFR2 greater or equal to 500)
C=CC(=O)Nc1ccc(-c2nn3ncnc(N)c3c2-c2ccc(Oc3nccc(NC)n3)c(F)c2)cc1 [Compound 433, N-(4-(4-amino-5-(3-fluoro-4-((4-(methylamino)pyrimidin-2-yl)oxy)phenyl)pyrazolo[5,1-f][1,2,4]triazin-6-yl)phenyl) acrylamide]	≤ 10	5 to 10	A+ (Selectivity of FGFR3/FGFR2 greater or equal to 150)	A+ (Selectivity of FGFR1/FGFR2 greater or equal to 500)
C=C(F)C(=O)Nc1ccc(-c2[nH]c3c(C#N)cnc(N)c3c2-c2ccc(C(=O)NC3CC(F)(F)C3)c(OC)c2)cc1 [Compound 319, 4-(4-amino-7-cyano-2-(4-(2-fluoroacrylamido)phe-nyl)-1H-pyrrolo[3,2-c]pyridin-3-yl)-N-(3,3-difluorocyclobutyl)-2-methoxybenzamide]	≤ 10	< 5	A+ (Selectivity of FGFR3/FGFR2 greater or equal to 150)	A (Selectivity of FGFR1/FGFR2 less than 500 but greater than or equal to 300)
C=CC(=O)Nc1ccc(-c2nn3ncnc(N)c3c2-c2ccc(C(=O)NCCF)c(OC)c2)cc1 [Compound 194, 4-(6-(4-acrylamidophenyl)-4-aminopyrazolo[5,1-f][1,2,4]triazin-5-yl)-N-(2-fluoroethyl)-2-methoxybenzamide]	≤ 10	5 to 10	A+ (Selectivity of FGFR3/FGFR2 greater or equal to 150)	B (Selectivity of FGFR1/FGFR2 less than 300 but greater than or equal to 200)

Further lines, with some results ahead:

IC50 (SNU16 cells) [nM]	IC50 (FGFR2) [nM]	Structure (SMILES)	Selectivity FGFR3/FGFR2 (FGFR3)	Selectivity FGFR1/FGFR2 (FGFR1)
≤ 10	5 to 10	C=C(F)C(=O)Nc1ccc(-c2[nH]c3c(C#N)cnc(N)c3c2-c2ccc(C(=O)NC3(C)CC3)c(OC)c2)cc1 [Compound 321, 4-(4-amino-7-cyano-2-(4-(2-fluoroacrylamido)phe-ny1)-1H-pyrrolo[3,2-c]pyridin-3-yl)-2-methoxy-N-(1-methylcyclopropyl)benzamide]	A+ (Selectivity of FGFR3/FGFR2 greater or equal to 150)	C (Selectivity of FGFR1/FGFR2 less than 200 but greater than or equal to 100)
≤ 10	< 5	C=C(F)C(=O)Nc1ccc(-c2nn3ncnc(N)c3c2-c2ccc(C(=O)NC3CC(F)C3)c(OC)c2)c(F)c1 (stereo not shown) [Compound 249]	A+ (Selectivity of FGFR3/FGFR2 greater or equal to 150)	C (Selectivity of FGFR1/FGFR2 less than 200 but greater than or equal to 100)
≤ 10	< 5	C=C(F)C(=O)Nc1ccc(-c2nn3ncnc(N)c3c2-c2ccc(C(=O)NC3(C(F)(F)F)CC3)c(OC)c2)c(C(F)(F)F)c1 [Compound 432]	B (Selectivity of FGFR3/FGFR2 less than 100 but greater than or equal to 25)	B (Selectivity of FGFR1/FGFR2 less than 300 but greater than or equal to 200)
≤ 10	< 5	C=C(F)C(=O)Nc1ccc(-c2c(-c3ccc(Oc4nccc(C)n4)c(F)c3)c3c(N)ncc(C#N)c3n2C)cc1 [Compound 344, N-(4-(4-amino-7-cyano-3-(3-fluoro-4-((4-methylpyrimidin-2-yl)oxy)phenyl)-1-methyl-1H-pyrrolo[3,2-c]pyridin-2-yl)phenyl)-2-fluoroacrylamide]	A (Selectivity of FGFR3/FGFR2 less than 150 but greater than or equal to 100)	A+ (Selectivity of FGFR1/FGFR2 greater or equal to 500)
≤ 10	< 5	C=CC(=O)Nc1ccc(-c2nn3ncnc(N)c3c2-c2ccc(Oc3nccc(C)n3)c(F)c2)cc1 [Compound 205, N-(4-(4-amino-5-(3-fluoro-4-((4-methylpyrimidin-2-yl)oxy)phenyl)pyrazolo [5,1-f][1,2,4]triazin-6-yl)phenyl)acrylamide]	B (Selectivity of FGFR3/FGFR2 less than 100 but greater than or equal to 25)	A+ (Selectivity of FGFR1/FGFR2 greater or equal to 500)
≤ 10	< 5	C=CC(=O)Nc1ccc(-c2c(-c3ccc(C(=O)NC4CC(F)(F)C4)c(OC)c3)c3c(N)ncc(C#N)c3n2C)cc1 [Compound 188, 4-(2-(4-acrylamidophenyl)-4-amino-7-cyano-1-methyl-1H-pyrrolo[3,2-c]pyridin-3-yl)-N-(3,3-difluorocyclobutyl)-2-methoxybenzamide]	B (Selectivity of FGFR3/FGFR2 less than 100 but greater than or equal to 25)	B (Selectivity of FGFR1/FGFR2 less than 300 but greater than or equal to 200)
≤ 10	< 5	C=CC(=O)Nc1ccc(-c2c(-c3ccc(C(=O)NC4(C)CC4)c(OC)c3)c3c(N)ncc(C#N)c3n2C)cc1 [Compound 169]	B (Selectivity of FGFR3/FGFR2 less than 100 but greater than or equal to 25)	A+ (Selectivity of FGFR1/FGFR2 greater or equal to 500)
≤ 10	< 5	C=C(C)C(=O)Nc1ccc(-c2c(-c3ccc(Oc4nccc(C)n4)c(F)c3)c3c(N)ncc(C#N)c3n2C)c(Cl)c1 [Compound 473, N-(4-(4-amino-7-cyano-3-(3-fluoro-4-((4-methylpyrimidin-2-yl)oxy)phenyl)-1-methyl-1H-pyrrolo[3,2-c]pyridin-2-yl)-3-chlorophenyl)methacrylamide]	A+ (Selectivity of FGFR3/FGFR2 greater or equal to 150)	A+ (Selectivity of FGFR1/FGFR2 greater or equal to 500)
